Results: the NIST ThermoML archive (doi:10.1021/acs.jced.8b00595)

Conditions: 101.3 kPa, Liquid; for viscosity: Concentric cylinders viscometry; for mass density: Vibrating tube method

COC(C)(C)C [2-methoxy-2-methylpropane]
Conditions | mass density [kg/m3] | viscosity [mPa·s]
273.15 K | 761.3 | 0.495
288.15 K | 745.9 | 0.421
298.15 K | 735 | 0.381
308.15 K | 724.6 | 0.328
